The source of these data is patent US5990101A, “Carbapenem derivatives” (Meiji Seika Kabushiki Kaisha, priority 1995, dated 1999).

Data set [1] can be described thus: Acute toxicity. The conditions noted are these: three ICR male mice, 1500 mg/kg i.v. Format: in vivo.
Data set [2] relates to E. coli 255. Briefly: Antibacterial activity (MIC, two-fold method), E. coli 255. The data set is classed as cell-based. Also noted: unit not given here.
In data set [3] the test system is E. faecalis W-73. Kind of data set: Antibacterial activity (MIC, two-fold method), E. faecalis W-73. The data set is classed as cell-based. Also noted: unit not given here.
The subject of data set [4] is C. freudii GN346. Briefly: Antibacterial activity (MIC, two-fold method), C. freudii GN346. Format: cell-based. Also noted: unit not given here.
Data set [5] has as its system P. vulgaris GN76. Kind of data set: Antibacterial activity (MIC, two-fold method), P. vulgaris GN76. The arrangement: unit not given here. The data set is classed as cell-based.
Data set [6] concerns Ps. aeruginosa E-2. Kind of data set: Antibacterial activity (MIC, two-fold method), Ps. aeruginosa E-2. The data set is classed as cell-based. The arrangement: unit not given here.
Data set [7] deals with S. aureus 209P JC-1. Briefly: Antibacterial activity (MIC, two-fold method), S. aureus 209P JC-1. Format: cell-based. The arrangement: unit not given here.
Data set [8] has as its system Ps. aeruginosa M-0148. Briefly: Antibacterial activity (MIC, two-fold method), Ps. aeruginosa M-0148. Format: cell-based. The arrangement: unit not given here.
Data set [9] relates to S. aureus M126. Briefly: Antibacterial activity (MIC, two-fold method), S. aureus M126 (methicillin-resistant). Also noted: unit not given here. The data set is classed as cell-based. An excerpt:
*: Methicillinresistant Staphylococcus aureus-

In data set [10] the test system is E. cloacae GN747. Briefly: Antibacterial activity (MIC, two-fold method), E. cloacae GN747. Format: cell-based. The arrangement: unit not given here.
Data set [11] has as its system S. marcescens GN10857. Briefly: Antibacterial activity (MIC, two-fold method), S. marcescens GN10857. The data set is classed as cell-based. Also noted: unit not given here.
Data set [12] deals with E. coli NIHJ JC-2. Kind of data set: Antibacterial activity (MIC, two-fold method), E. coli NIHJ JC-2. Format: cell-based. The arrangement: unit not given here.
The subject of data set [13] is K. pneumoniae PC1602. Kind of data set: Antibacterial activity (MIC, two-fold method), K. pneumoniae PC1602. Format: cell-based. Also noted: unit not given here.
For data set [14], the system named is renal dehydropeptidase-1 (DHP-1). As to conditions: background art; cited from earlier work.

Consider `C[C@@H](O)[C@H]1C(=O)N2C(C(=O)[O-])=C(C[n+]3cc4scc(CNS(N)(=O)=O)n4c3)[C@H](C)[C@H]12` [Example 14, (1S,5R,6S)-6-[(1R)-1-hydroxyethyl]-2-[3-(aminosulfonyl)aminomethylimidazo[5,1-b]thiazolium-6-yl]methyl-1-methyl-1-carbapen-2-em-3-carboxylate], for which the “survival (acute toxicity)” value in data set [1] was “All the animal survived”.
In the case of `C[C@@H](O)[C@H]1C(=O)N2C(C(=O)[O-])=C(Cn3cc4sc(C(N)=O)c[n+]4c3)[C@H](C)[C@H]12` [Example 68, (1S,5R,6S)-6-[(1R)-1-hydroxyethyl]-2-(2-carbamoylimidazo[5,1-b]thiazolium-6-yl)methyl-1-methyl-1-carbapen-2-em-3-carboxylate], the MIC in [2] was 0.20; in [3], 6.25; in [4], 0.10; in data set [5] it was 0.78; in data set [6], 3.13; in data set [7], below 0.025. Further, the MIC amounted to 3.13 in data set [8]; 6.25 in [9]; 0.20 in data set [10]; 0.39 in data set [11]; 0.20 in data set [12]; 0.20 in data set [13].
On to `C[C@@H](O)[C@H]1C(=O)N2C(C(=O)O)=C(SCCN=CN)C[C@H]12` [Imipenem], for which the “stability against renal dehydropeptidase-1 (DHP-1)” value in data set [14] is “instability”.
